Measurements taken from US9493446B2, “Orexin receptor antagonists which are [ortho bi-(hetero-)aryl]-[2-(meta bi-(hetero-)aryl)-pyrrolidin-1-yl]-methanone derivatives” (Actelion Pharmaceuticals Ltd, priority 2012, dated 2016).
Where two headings read alike, the source gives them in different places.

Columns and labels:
human orexin-2 receptor = human orexin-2 receptor (Homo sapiens (Human), UniProt O43614); assay: Intracellular calcium measurement (FLIPR), CHO cells expressing human orexin-2 receptor, 3 nM orexin-A; assay type: cell-based; settings: read-out: IC50 OX2
Chain of human orexin-2 receptor (O43614 whole entry): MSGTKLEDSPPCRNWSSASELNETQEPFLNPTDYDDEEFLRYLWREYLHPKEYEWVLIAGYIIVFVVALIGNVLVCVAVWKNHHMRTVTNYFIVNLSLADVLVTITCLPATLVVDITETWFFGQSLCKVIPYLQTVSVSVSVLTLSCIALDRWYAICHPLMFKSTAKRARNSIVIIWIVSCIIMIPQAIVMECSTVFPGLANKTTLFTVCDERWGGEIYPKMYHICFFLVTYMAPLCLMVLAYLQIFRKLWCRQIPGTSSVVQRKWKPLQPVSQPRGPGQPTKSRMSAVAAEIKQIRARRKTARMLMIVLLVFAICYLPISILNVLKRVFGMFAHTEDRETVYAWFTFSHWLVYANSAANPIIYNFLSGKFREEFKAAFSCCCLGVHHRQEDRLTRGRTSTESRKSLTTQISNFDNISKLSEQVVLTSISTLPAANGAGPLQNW
Procedure, shortened: (§1)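 Fluo-4 AM-loaded CHO cells; antagonist preincubation 120 min, then 3 nM orexin-A (final) in HBSS/0.1% BSA/20 mM HEPES. FLIPR read at 1 s intervals; peak height vs. agonist-plus-vehicle control → IC50.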

orexin-1 = orexin-1 (Homo sapiens (Human), UniProt O43613); assay: Intracellular calcium measurement (FLIPR), CHO cells expressing human orexin-1 receptor, 3 nM orexin-A; assay type: cell-based; settings: read-out: IC50 OX1
Chain of orexin-1 (O43613 whole entry): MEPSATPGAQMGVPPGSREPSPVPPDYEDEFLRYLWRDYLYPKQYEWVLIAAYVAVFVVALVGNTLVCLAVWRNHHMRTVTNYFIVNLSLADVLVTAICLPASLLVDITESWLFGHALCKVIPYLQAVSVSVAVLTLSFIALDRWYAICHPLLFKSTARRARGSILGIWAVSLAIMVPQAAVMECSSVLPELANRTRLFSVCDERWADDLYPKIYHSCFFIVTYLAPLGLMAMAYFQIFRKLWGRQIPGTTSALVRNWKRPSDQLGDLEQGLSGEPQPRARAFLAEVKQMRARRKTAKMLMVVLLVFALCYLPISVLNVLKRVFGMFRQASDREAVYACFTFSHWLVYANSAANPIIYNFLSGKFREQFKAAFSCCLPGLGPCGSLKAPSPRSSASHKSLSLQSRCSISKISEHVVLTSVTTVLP
Procedure, shortened: as §1

[1] = CHO cells expressing human orexin-2 receptor, FLIPR, 3 nM orexin-A, geometric mean if determined several times
[2] = CHO cells expressing human orexin-1 receptor, FLIPR, 3 nM orexin-A, geometric mean if determined several times

SMILES	IC50 (human orexin-2 receptor; [1])	IC50 (orexin-1; [2])	IC50 (orexin-1)	IC50 (human orexin-2 receptor)
Cc1ccc(C)c(-c2nc([C@@H]3CCCN3C(=O)c3ccc(Cl)cc3-n3nccn3)no2)c1 [compound 399]	10 nM		77 nM	
COc1cc(C(=O)N2CCC[C@H]2c2noc(-c3cc(C)ccc3C)n2)c(-n2nccn2)cc1C [compound 405, {(S)-2-[5-(2,5-Dimethyl-phenyl)-[1,2,4]oxadiazol-3-yl]-pyrrolidin-1-yl}-(5-methoxy-4-methyl-2-[1,2,3]triazol-2-yl-phenyl)-methanone]	1 nM	33 nM		
COc1cc(C(=O)N2CCC[C@H]2c2noc(-c3cccc(C)c3C)n2)c(-n2nccn2)cc1Cl [compound 406]	2 nM	22 nM		
CCc1ccccc1-c1nc([C@@H]2CCCN2C(=O)c2cc(OC)c(Cl)cc2-n2nccn2)no1 [compound 407]	3 nM	15 nM		
COc1cc(C(=O)N2CCC[C@H]2c2noc(-c3cc(C)ccc3C)n2)c(-n2nccn2)cc1Cl [compound 408]	2 nM	31 nM		
COc1cc(C)cc(-c2nc([C@@H]3CCCN3C(=O)c3cc(Cl)ccc3-n3nccn3)no2)c1 [compound 415]		193 nM		49 nM
COc1ccc(C)c(-c2nc([C@@H]3CCCN3C(=O)c3cc(Cl)ccc3-n3nccn3)no2)c1 [compound 416]	20 nM		152 nM	
COc1ccc(C)cc1-c1nc([C@@H]2CCCN2C(=O)c2cc(Cl)ccc2-n2nccn2)no1 [compound 417]	21 nM	271 nM		
COc1cc(C)cc(-c2nc([C@@H]3CCCN3C(=O)c3ccc(Cl)cc3-n3nccn3)no2)c1 [compound 418]	25 nM		85 nM	
COc1ccc(C)c(-c2nc([C@@H]3CCCN3C(=O)c3ccc(Cl)cc3-n3nccn3)no2)c1 [compound 419]		207 nM		16 nM
Cc1cc(C)cc(-c2cc([C@@H]3CCCN3C(=O)c3cc(C)ccc3-n3nccn3)on2)c1 [compound 423, {(S)-2-[3-(3,5-Dimethyl-phenyl)-isoxazol-5-yl]-pyrrolidin-1-yl}-(5-methyl-2-[1,2,3]triazol-2-yl-phenyl)-methanone]	39 nM	81 nM		
Cc1ccc(-n2nccn2)c(C(=O)N2CCC[C@H]2c2cc(-c3cccc(Cl)c3C)no2)c1 [compound 424]	4 nM	8 nM		
COc1ncccc1-c1cc([C@@H]2CCCN2C(=O)c2cc(C)ccc2-n2nccn2)on1 [compound 426, {(S)-2-[3-(2-Methoxy-pyridin-3-yl)-isoxazol-5-yl]-pyrrolidin-1-yl}-(5-methyl-2-[1,2,3]triazol-2-yl-phenyl)-methanone]	30 nM	414 nM		
CCOc1ncccc1-c1cc([C@@H]2CCCN2C(=O)c2cc(C)ccc2-n2nccn2)on1 [compound 428, {(S)-2-[3-(2-Ethoxy-pyridin-3-yl)-isoxazol-5-yl]-pyrrolidin-1-yl}-(5-methyl-2-[1,2,3]triazol-2-yl-phenyl)-methanone]	28 nM	67 nM		
Cc1ccc(-n2nccn2)c(C(=O)N2CCC[C@H]2c2cc(-c3cccc(Cl)c3C)on2)c1 [compound 431]	2 nM	19 nM		
COc1cc(C(=O)N2CCC[C@H]2c2cc(-c3cccc(Cl)c3C)on2)c(-n2nccn2)cc1C [compound 433]	1 nM	19 nM		

Further lines, with some results ahead:

IC50 (human orexin-2 receptor; [1])	IC50 (orexin-1; [2])	SMILES	IC50 (orexin-1)	IC50 (human orexin-2 receptor)
4 nM	36 nM	Cc1cc(C(=O)N2CCC[C@H]2c2noc(-c3cccc(C)c3C)n2)c(-n2nccn2)cc1C [compound 400, {(S)-2-[5-(2,3-Dimethyl-phenyl)-[1,2,4]oxadiazol-3-yl]-pyrrolidin-1-yl}-(4,5-dimethyl-2-[1,2,3]triazol-2-yl-phenyl)-methanone]		
3 nM	7 nM	CCc1ccccc1-c1nc([C@@H]2CCCN2C(=O)c2cc(C)c(C)cc2-n2nccn2)no1 [compound 401, (4,5-Dimethyl-2-[1,2,3]triazol-2-yl-phenyl)-{(S)-2-[5-(2-ethyl-phenyl)-[1,2,4]oxadiazol-3-yl]-pyrrolidin-1-yl}-methanone]		
2 nM	164 nM	Cc1ccc(C)c(-c2nc([C@@H]3CCCN3C(=O)c3cc(C)c(C)cc3-n3nccn3)no2)c1 [compound 402, {(S)-2-[5-(2,5-Dimethyl-phenyl)-[1,2,4]oxadiazol-3-yl]-pyrrolidin-1-yl}-(4,5-dimethyl-2-[1,2,3]triazol-2-yl-phenyl)-methanone]		
2 nM	25 nM	COc1cc(C(=O)N2CCC[C@H]2c2noc(-c3cccc(C)c3C)n2)c(-n2nccn2)cc1C [compound 403, {(S)-2-[5-(2,3-Dimethyl-phenyl)-[1,2,4]oxadiazol-3-yl]-pyrrolidin-1-yl}-(5-methoxy-4-methyl-2-[1,2,3]triazol-2-yl-phenyl)-methanone]		
3 nM	23 nM	CCc1ccccc1-c1nc([C@@H]2CCCN2C(=O)c2cc(OC)c(C)cc2-n2nccn2)no1 [compound 404, {(S)-2-[5-(2-Ethyl-phenyl)-[1,2,4]oxadiazol-3-yl]-pyrrolidin-1-yl}-(5-methoxy-4-methyl-2-[1,2,3]triazol-2-yl-phenyl)-methanone]		
12 nM	45 nM	COc1cc(C)cc(-c2nc([C@@H]3CCCN3C(=O)c3cc(C)ccc3-n3nccn3)no2)c1 [compound 409, {(S)-2-[5-(3-Methoxy-5-methyl-phenyl)-[1,2,4]oxadiazol-3-yl]-pyrrolidin-1-yl}-(5-methyl-2-[1,2,3]triazol-2-yl-phenyl)-methanone]		
14 nM	140 nM	COc1ccc(C)c(-c2nc([C@@H]3CCCN3C(=O)c3cc(C)ccc3-n3nccn3)no2)c1 [compound 410, {(S)-2-[5-(5-Methoxy-2-methyl-phenyl)-[1,2,4]oxadiazol-3-yl]-pyrrolidin-1-yl}-(5-methyl-2-[1,2,3]triazol-2-yl-phenyl)-methanone]		
9 nM	99 nM	COc1ccc(C)cc1-c1nc([C@@H]2CCCN2C(=O)c2cc(C)ccc2-n2nccn2)no1 [compound 411, {(S)-2-[5-(2-Methoxy-5-methyl-phenyl)-[1,2,4]oxadiazol-3-yl]-pyrrolidin-1-yl}-(5-methyl-2-[1,2,3]triazol-2-yl-phenyl)-methanone]		
80 nM	109 nM	COc1cc(C)cc(-c2nc([C@@H]3CCCN3C(=O)c3ccc(C)cc3-n3nccn3)no2)c1 [compound 412, {(S)-2-[5-(3-Methoxy-5-methyl-phenyl)-[1,2,4]oxadiazol-3-yl]-pyrrolidin-1-yl}-(4-methyl-2-[1,2,3]triazol-2-yl-phenyl)-methanone]		
30 nM	163 nM	COc1ccc(C)c(-c2nc([C@@H]3CCCN3C(=O)c3ccc(C)cc3-n3nccn3)no2)c1 [compound 413, {(S)-2-[5-(5-Methoxy-2-methyl-phenyl)-[1,2,4]oxadiazol-3-yl]-pyrrolidin-1-yl}-(4-methyl-2-[1,2,3]triazol-2-yl-phenyl)-methanone]		
35 nM	331 nM	COc1ccc(C)cc1-c1nc([C@@H]2CCCN2C(=O)c2ccc(C)cc2-n2nccn2)no1 [compound 414, {(S)-2-[5-(2-Methoxy-5-methyl-phenyl)-[1,2,4]oxadiazol-3-yl]-pyrrolidin-1-yl}-(4-methyl-2-[1,2,3]triazol-2-yl-phenyl)-methanone]		
4 nM	152 nM	Cc1ccc(-n2nccn2)c(C(=O)N2CCC[C@H]2c2cc(-c3cccc(C)c3C)no2)c1 [compound 422, {(S)-2-[3-(2,3-Dimethyl-phenyl)-isoxazol-5-yl]-pyrrolidin-1-yl}-(5-methyl-2-[1,2,3]triazol-2-yl-phenyl)-methanone]		
10 nM	4 nM	Cc1ccc(-n2nccn2)c(C(=O)N2CCC[C@H]2c2cc(-c3ccccc3OC(F)(F)F)no2)c1 [compound 425, (5-Methyl-2-[1,2,3]triazol-2-yl-phenyl)-{(S)-2-[3-(2-trifluoromethoxy-phenyl)-isoxazol-5-yl]-pyrrolidin-1-yl}-methanone]		
292 nM	80 nM	Cc1ccc(-n2nccn2)c(C(=O)N2CCC[C@H]2c2cc(-c3cccnc3OC(C)C)no2)c1 [compound 427, {(S)-2-[3-(2-Isopropoxy-pyridin-3-yl)-isoxazol-5-yl]-pyrrolidin-1-yl}-(5-methyl-2-[1,2,3]triazol-2-yl-phenyl)-methanone]		
26 nM	98 nM	COc1c(F)cccc1-c1cc([C@@H]2CCCN2C(=O)c2cc(C)ccc2-n2nccn2)on1 [compound 429, {(S)-2-[3-(3-Fluoro-2-methoxy-phenyl)-isoxazol-5-yl]-pyrrolidin-1-yl}-(5-methyl-2-[1,2,3]triazol-2-yl-phenyl)-methanone]		
51 nM	359 nM	Cc1ccc(-n2nccn2)c(C(=O)N2CCC[C@H]2c2cc(-c3ccccc3)on2)c1 [compound 430, (5-Methyl-2-[1,2,3]triazol-2-yl-phenyl)-[(S)-2-(5-phenyl-isoxazol-3-yl)-pyrrolidin-1-yl]-methanone]		
16 nM	322 nM	COc1cc(C(=O)N2CCC[C@H]2c2cc(-c3ccccc3)on2)c(-n2nccn2)cc1C [compound 432, (5-Methoxy-4-methyl-2-[1,2,3]triazol-2-yl-phenyl)-[(S)-2-(5-phenyl-isoxazol-3-yl)-pyrrolidin-1-yl]-methanone]		
5 nM	21 nM	Cc1ccc(-n2nccn2)c(C(=O)N2CCC[C@H]2c2cc(-c3ccccc3OC(F)(F)F)on2)c1 [compound 434, (5-Methyl-2-[1,2,3]triazol-2-yl-phenyl)-{(S)-2-[5-(2-trifluoromethoxy-phenyl)-isoxazol-3-yl]-pyrrolidin-1-yl}-methanone]		
